Experiments:
Type in all cases: biochemical
FL-CHK1 = target: T1, FL-CHK1 (Homo sapiens, UniProt O14757); assay: CHK1 assay; set-up: CHK1^b: unit not given here; details: for CHK1^b: Table A combinatorial examples, footnote b not given
T1 construct: C-terminally His-tagged full-length human CHK1 (FL-CHK1); 6xHis (C); made in house; host or cells: baculovirus/insect cells
T1 sequence (O14757 1-476): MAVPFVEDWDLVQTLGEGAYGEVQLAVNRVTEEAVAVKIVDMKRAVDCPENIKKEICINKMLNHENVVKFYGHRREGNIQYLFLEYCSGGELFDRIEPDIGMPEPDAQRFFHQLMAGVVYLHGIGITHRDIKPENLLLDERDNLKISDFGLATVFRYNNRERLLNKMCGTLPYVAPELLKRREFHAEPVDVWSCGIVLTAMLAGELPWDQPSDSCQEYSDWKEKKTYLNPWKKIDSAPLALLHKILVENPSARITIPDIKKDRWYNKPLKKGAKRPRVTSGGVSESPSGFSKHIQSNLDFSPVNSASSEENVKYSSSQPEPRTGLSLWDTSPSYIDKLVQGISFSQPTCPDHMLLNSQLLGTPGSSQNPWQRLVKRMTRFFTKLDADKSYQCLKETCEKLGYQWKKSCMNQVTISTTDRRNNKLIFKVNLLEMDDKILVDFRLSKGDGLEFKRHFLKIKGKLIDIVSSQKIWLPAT
Excerpt: CHK-1 Construct for Assay: C-terminally His-tagged full-length human CHK1 (FL-CHK1) was expressed using the baculovirus/insect cell system. It contains 6 histidine residues (6×His-tag) at the C-terminus of the 476 amino acid human CHK1. The protein was purified by conventional chromatographic techniques.
The production of ADP from ATP that accompanies phosphoryl transfer to the synthetic substrate peptide Syntide-2 ([…]) was coupled to oxidation of NADH using phosphoenolpyruvate (PEP) through the actions of pyruvate kinase (PK) and lactic dehydrogenase (LDH). The oxidation of NADH was monitored by following the decrease of absorbance at 340 nm (ε340=6.22 cm^−1 mM^−1) using a HP8452 spectrophotometer. Typical reaction solutions contained: […]; 0.15 mM NADH; 28 units of LDH/ml; 16 units of PK/ml; 3 mM DTT; 0.125 mM Syntide-2; 0.15 mM ATP; 25 mM MgCl2 in 50 mM TRIS, pH 7.5; and 400 mM NaCl. Assays were initiated with 10 nM of FL-CHK1. Ki values were determined by measuring initial enzyme activity in the presence of varying concentrations of test compounds. The data were analyzed using Enzyme Kinetic and Kaleidagraph software.

CDK2/Cyclin A complex = CDK2/Cyclin A complex (Homo sapiens, UniProt P24941); assay: CDK2/Cyclin A assay; set-up: CDK2^c: concentration or dose not given beside the values; details: for CDK2^c: Table A combinatorial examples, footnote c not given
Excerpt: CDK2/Cyclin A Construct for Assay: CDK2 was purified using published methodology (Rosenblatt et al., J. Mol. Biol., 230, 1317-1319 (1993)) from insect cells that had been infected with a baculovirus expression vector. Cyclin A was purified from E. coli cells expressing full-length recombinant cyclin A, and a truncated cyclin A construct was generated by limited proteolysis and purified as described previously (Jeffrey et al., Nature, 376, 313-320 (Jul. 27, 1995)).
(§1) CDK2/Cyclin A and CDK4/Cyclin D Assays
(§2) Cyclin-dependent kinase activity was measured by quantifying the enzyme-catalyzed, time-dependent incorporation of radioactive phosphate from [^32P]ATP into a recombinant fragment of the retinoblastoma protein. Unless noted otherwise, assays were performed in 96-well plates in a total volume of 50 μL, in the presence of 10 mM HEPES (N-[2-hydroxyethyl]piperazine-N′-[2-ethanesulfonic acid]) (pH 7.4), 10 mM MgCl2, 25 μM adenosine triphosphate (ATP), 1 mg/mL ovalbumin, 5 μg/mL leupeptin, 1 mM dithiothreitol, 10 mM β-glycerophosphate, 0.1 mM sodium vanadate, 1 mM sodium fluoride, 2.5 mM ethylene glycol-bis(β-aminoethyl ether)-N,N,N′N′-tetraacetic acid (EGTA), 2% (v/v) dimethylsulfoxide, and 0.03-0.2 μCi [^32P]ATP. The substrate (0.3-0.5 μg) was purified recombinant retinoblastoma protein fragment (Rb) (residues 386-928 of the native retinoblastoma protein; 62.3 kDa, containing the majority of the phosphorylation sites found in the native 106-kDa protein, as well as a tag of six histidine residues for ease of purification). Reactions were initiated with CDK2 (150 nM CDK2/Cyclin A complex) or CDK4 (50 nM CDK4/Cyclin D3 complex), incubated at 30° C., and terminated after 20 minutes by the addition of ethylenediaminetetraacetic acid EDTA) to 250 mM. The phosphorylated substrate was then captured on a nitrocellulose membrane using a 96-well filtration manifold, and unincorporated radioactivity was removed by repeated washing with 0.85% phosphoric acid. Radioactivity was quantified by exposing the dried nitrocellulose membranes to a phosphorimager. Apparent Ki values were measured by assaying enzyme activity in the presence of different compound concentrations and subtracting the background radioactivity measured in the absence of enzyme. The kinetic parameters (kcat, Km for ATP) were measured for each enzyme under the usual assay conditions by determining the dependence of initial rates on ATP concentration. The data were fit to an equation for competitive inhibition using Kaleidagraph (Synergy Software), or were fit to an equation for competitive tight-binding inhibition using the software KineTic (BioKin, Ltd.). Measured Ki values for known inhibitors against CDK4 and CDK2 agreed with published IC50 values. The specific activity of CDK4 was the same whether complexed to full-length cyclin D3 or the truncated Cyclin D3 construct; both complexes also yielded very similar Ki values for selected inhibitors.

CDK4/Cyclin D3 complex = target: T2, CDK4/Cyclin D3 complex (Homo sapiens, UniProt P11802); assay: CDK4/Cyclin D assay; details: Table 2; for inhibition at 100 µM: at 100 (printed 100 or 100 μM)
T2 construct: made in house; host or cells: insect cells co-infected with baculovirus vectors
Procedure: CDK4/Cyclin D Construct for Assay: A complex of human CDK4 and cyclin D3, or a complex of cyclin DI and a fusion protein of human CDK4 and glutathione-S-transferase (GST-CDK4), was purified using traditional biochemical chromatographic techniques from insect cells that had been co-infected with the corresponding baculovirus expression vectors.
as §1, §2

[1] = target: T3, phosphorylated VEGF-R2Δ50 (FLVK-P) (Homo sapiens, UniProt P35968, DEL940-989/E990V); assay: VEGF-R2 coupled spectrophotometric (FLVK-P) assay; details: Table 3; at 1 μM
T3 construct: VEGF-R2Δ50 contains residues 806-939 and 990-1171; made in house; host or cells: baculovirus/insect cells
Excerpt: VEGF-R2 Construct for Assay: This construct determines the ability of a test compound to inhibit tyrosine kinase activity. A construct (VEGF-R2Δ50) of the cytosolic domain of human vascular endothelial growth factor receptor 2 (VEGF-R2) lacking the 50 central residues of the 68 residues of the kinase insert domain was expressed in a baculovirus/insect cell system. Of the 1356 residues of full-length VEGF-R2, VEGF-R2Δ50 contains residues 806-939 and 990-1171, and also one point mutation (E990V) within the kinase insert domain relative to wild-type VEGF-R2. Autophosphorylation of the purified construct was performed by incubation of the enzyme at a concentration of 4 μM in the presence of 3 mM ATP and 40 mM MgCl2 in 100 mM Hepes, pH 7.5, containing 5% glycerol and 5 mM DTT, at 4° C. for 2 h. […] See Parast et al., Biochemistry, 37, 16788-16801 (1998).
Coupled Spectrophotometric (FLVK-P) Assay
The production of ADP from ATP that accompanies phosphoryl transfer was coupled to oxidation of NADH using phosphoenolpyruvate (PEP) and a system having pyruvate kinase (PK) and lactic dehydrogenase (LDH). The oxidation of NADH was monitored by following the decrease of absorbance at 340 nm (e340=6.22 cm^−1 mM^−1) using a Beckman DU 650 spectrophotometer. Assay conditions for phosphorylated VEGF-R2Δ50 (indicated as FLVK-P in the tables below) were the following: 1 mM PEP; 250 μM NADH; 50 units of LDH/mL; 20 units of PK/mL; 5 mM DTT; 5.1 mM poly(E4Y1); 1 mM ATP; and 25 mM MgCl2 in 200 mM Hepes, pH 7.5. Assay conditions for unphosphorylated VEGF-R2Δ50 (indicated as FLVK in the tables) were the following: 1 mM PEP; 250 μM NADH; 50 units of LDH/mL; 20 units of PK/mL; 5 mM DTT; 20 mM poly(E4Y1); 3 mM ATP; and 60 mM MgCl2 and 2 mM MnCl2 in 200 mM Hepes, pH 7.5. Assays were initiated with 5 to 40 nM of enzyme. Ki values were determined by measuring enzyme activity in the presence of varying concentrations of test compounds. The data were analyzed using Enzyme Kinetic and Kaleidagraph software.

T2 sequence (P11802 whole entry): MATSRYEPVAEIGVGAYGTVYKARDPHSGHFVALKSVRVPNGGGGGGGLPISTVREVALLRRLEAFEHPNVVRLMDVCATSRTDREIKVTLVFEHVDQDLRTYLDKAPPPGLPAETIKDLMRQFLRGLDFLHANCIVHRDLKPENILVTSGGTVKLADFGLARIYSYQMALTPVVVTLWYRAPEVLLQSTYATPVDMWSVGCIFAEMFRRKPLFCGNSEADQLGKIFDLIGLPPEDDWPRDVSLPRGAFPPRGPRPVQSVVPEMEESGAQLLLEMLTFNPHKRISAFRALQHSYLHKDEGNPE
T2 sequence (P30281 whole entry partner): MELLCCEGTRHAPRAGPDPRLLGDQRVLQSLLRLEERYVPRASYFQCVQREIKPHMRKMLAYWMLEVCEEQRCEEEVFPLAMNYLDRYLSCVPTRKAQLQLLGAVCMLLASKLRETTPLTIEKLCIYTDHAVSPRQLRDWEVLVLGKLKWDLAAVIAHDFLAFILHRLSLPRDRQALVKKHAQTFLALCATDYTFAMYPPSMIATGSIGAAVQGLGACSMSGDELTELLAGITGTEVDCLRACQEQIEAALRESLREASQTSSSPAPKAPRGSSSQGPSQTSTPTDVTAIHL
T3 sequence (P35968 with tags, fused parts or gaps DEL940-989/E990V limits assumed): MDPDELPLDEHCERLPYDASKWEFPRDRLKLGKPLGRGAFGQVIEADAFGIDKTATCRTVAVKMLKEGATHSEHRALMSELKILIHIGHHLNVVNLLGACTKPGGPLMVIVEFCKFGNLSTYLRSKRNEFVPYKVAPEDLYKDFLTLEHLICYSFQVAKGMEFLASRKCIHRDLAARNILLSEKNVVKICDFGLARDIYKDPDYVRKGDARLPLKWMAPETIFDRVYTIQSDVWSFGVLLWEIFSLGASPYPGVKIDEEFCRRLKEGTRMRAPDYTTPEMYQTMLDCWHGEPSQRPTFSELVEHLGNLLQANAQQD

Compound	CHK1^b (FL-CHK1)	CDK2^c (CDK2/Cyclin A complex)	further results
COc1cc(Nc2nc(N)c(-c3nc(-c4cc(C)sc4C)cs3)s2)cc(OC)c1OC	46.3	7.3	
COc1cc(Nc2nc(N)c(-c3nc(-c4ccc5c(c4)C(C)(C)CCC5(C)C)cs3)s2)cc2c1OCCO2	22.4	4.2	
COc1cc(Nc2nc(N)c(-c3nc(-c4ccc(C(F)(F)F)cc4)cs3)s2)cc(OC)c1OC	8.5	13.9	
COc1cc(Nc2nc(N)c(-c3nc(-c4ccc5c(c4)CCC(=O)N5)cs3)s2)cc2c1OCCO2	31.9	−7.8	
COc1cc(Nc2nc(N)c(-c3nc(-c4ccccc4OC(=O)c4ccccc4)cs3)s2)cc(OC)c1OC	0.5	4.6	
CCc1cc2c(cc1-c1csc(-c3sc(Nc4cc(OC)c5c(c4)OCCO5)nc3N)n1)C(C)(C)CCC2(C)C	10.4	13.8	
COc1ccc2nc(-c3ccccc3)cc(-c3csc(-c4sc(Nc5cc(OC)c(OC)c(OC)c5)nc4N)n3)c2c1	21.6	−2.7	
COc1cc(Nc2nc(N)c(-c3nc(-c4sc5ccccc5c4C)cs3)s2)cc2c1OCCO2	4.7	23.1	
COc1cc(Nc2nc(N)c(-c3nc(-c4cc(C(C)(C)C)c(O)c(C(C)(C)C)c4)cs3)s2)cc(OC)c1OC	25.3	5.3	
CCOC(=O)c1ccc(-c2csc(-c3sc(Nc4cc(OC)c(OC)c(OC)c4)nc3N)n2)cc1 [A(11), 4-[4′-Amino-2′-(3,4,5-trimethoxy-phenylamino)-[2,5′]bithiazolyl-4-yl]-benzoic acid ethyl ester]			inhibition at 100 µM (CDK4/Cyclin D3 complex): 33%
COc1cc(Nc2nc(N)c(-c3cccc(Br)n3)s2)cc(OC)c1OC [G(6), 5-(6-Bromo-pyridin-2-yl)-2-N-(3,4,5-trimethoxy-phenyl)-thiazole-2,4-diamine]			Ki (CDK4/Cyclin D3 complex): 100 µM
COc1cc(Nc2nc(N)c(C3=N[C@H](Cc4ccccc4)CO3)s2)cc(OC)c1OC [I(2), R-5-(4-Benzyl-4,5-dihydro-oxazol-2-yl)-N^2-(3,4,5-trimethoxyl-phenyl)-thiazole-2,4-diamine]			inhibition at 100 µM (CDK4/Cyclin D3 complex): < 0%
COc1cc(Nc2nc(N)c(C3=NC(C(C)OCc4ccccc4)CO3)s2)cc(OC)c1OC [I(4), 5-{(4R)-[(1R)-Benzyloxy-ethyl]-4,5-dihydro-oxazol-2-yl}-N^2-(3,4,5-trimethoxyl-phenyl)-thiazole-2,4-diamine]			inhibition at 100 µM (CDK4/Cyclin D3 complex): < 0%
Nc1nc(Nc2ccc(S(N)(=O)=O)cc2)sc1-c1nc(C(=O)O)cs1 [N(1)]			inhibition at 25 µM (FL-CHK1; Table 3, at 25 μM): < 0%; inhibition at 1 µM [1]: 24%; Ki (CDK2/Cyclin A complex; Table 3): 2.7 µM
COc1cc(Nc2nc(N)c(-c3nc(-c4ccc(O)c(O)c4)cs3)s2)cc(OC)c1OC [drawing 325]	47.7	−10.3	
COc1ccc(-c2csc(-c3sc(Nc4cc(OC)c(OC)c(OC)c4)nc3N)n2)cc1 [drawing 336]	15.3	−13	
COc1cc(Nc2nc(N)c(-c3nc(-c4ccc(O)cc4)cs3)s2)cc(OC)c1OC [drawing 352]	48.3	3	
COc1cc(Nc2nc(N)c(-c3nc(-c4ccccc4)cs3)s2)cc(OC)c1OC [drawing 358]	21.1	−0.2	
COc1cc(Nc2nc(N)c(-c3nc(-c4sc5ccc(Cl)cc5c4C)cs3)s2)cc2c1OCCO2 [drawing 361]	48.7	7.3	
COc1ccc(-c2csc(-c3sc(Nc4cc(OC)c(OC)c(OC)c4)nc3N)n2)cc1 [drawing 362]	29.4	1.7	
COc1cc(Nc2nc(N)c(-c3nc(-c4sc5ccc(Cl)cc5c4C)cs3)s2)cc2c1OCCO2 [drawing 363]	38.1	12	
COc1cc(Nc2nc(N)c(-c3nc(-c4ccccc4)cs3)s2)cc(OC)c1OC [drawing 372]	14.1	−1	
COc1cc(Nc2nc(N)c(-c3nc(-c4ccc(F)cc4F)cs3)s2)cc(OC)c1OC [drawing 382]	32.5	−12.1	

Reference: patent US6620828B2, “Thiazole compounds and pharmaceutical compositions for inhibiting protein kinases and methods for their use” (Agouron Pharmaceuticals, Inc., priority 1999, dated 2003)
